From article PMC12259270, “Sensory neuron–expressed FGF13 controls nociceptive signaling in diabetic neuropathy models” (The Journal of Clinical Investigation, 2025)
Residues, ends and D or L forms follow the SMILES beside them. *: point of attachment. Cbz = O=C(OCc1ccccc1)*; NHPh = c1ccc(N*)cc1; OtBu = CC(C)(C)O*

System: Na+ currents in hIPSC-derived sensory neurons (RealDRG)
Assay: Whole-cell voltage clamp, hIPSC-derived sensory neurons (RealDRG) with Nav1.8 blocker A-803467
Type: cell-based, human
Conditions: for Long-term inactivation, 2nd Pulse / Long-term inactivation, 3rd Pulse / Long-term inactivation, 4th Pulse / Activation / Peak Density / Steady-State inactivation / Tau (τ): RealDRG
Experimental: Next, we conducted whole-cell patch-clamp electrophysiological recordings in hIPSC-derived sensory neurons under three conditions: unstimulated and treated with 0.07% ethanol (capsaicin vehicle), treated with capsaicin (100 nM, 10 minutes), and treated with capsaicin plus SB-366791 (10 μM), a selective TRPV1 inhibitor. Each group was exposed to either vehicle (0.01% DMSO) or PW164 (50 μM), with all recordings performed in the presence of the Nav1.8 blocker A-803467 (300 nM) ([41]). The experimental groups are color coded in Figure 2A. Capsaicin caused potentiation of INa (Figure 2A) and induced hyperpolarizing shifts in the V1/2 of activation (Figure 2B) and SSI (Figure 2C). […] Next, we investigated whether silencing FGF13 could replicate PW164’s effects and prevent additional activity of the compound. hIPSC-derived sensory neurons were transfected with a previously validated pAAV-shFGF13-GFP construct ([42]) (Supplemental Figure 8). […] Neither PW164 nor FGF13 silencing affected Na+ currents in neurons transfected with pAAV-shCTRL-GFP or pAAV-shFGF13-GFP, whether unstimulated or treated with capsaicin in the presence of ProTx II (Supplemental Figure 9 and Supplemental Table 6). Thus, PW164 selectively modulated FGF13-dependent Na^+ current sensitization via TRPV1, with FGF13 silencing mimicking and validating PW164’s effect. […]
Whole-cell patch clamp electrophysiology
HEK293-Nav1.7 cells, HEK293 stably expressing human Nav1.6 (HEK-Nav1.6), HEK293 stably expressing human Nav1.5 (HEK-Nav1.5), human hIPSC-derived sensory neurons (RealDRGTM from Anatomic Incorporated 1020F1-1M) and donor-derived DRG neurons were plated at low density on glass coverslips and processed for whole-cell patch clamp electrophysiology in voltage-clamp and/or current clamp mode. Whole-cell patch electrophysiological experiments were conducted following previously published studies (26). Current densities were obtained by dividing INa amplitude by membrane capacitance. Current –voltage relationships were generated by plotting current density as a function of the […]. Conductance (G Na) was calculated by the […]
where INa is the current amplitude at voltage Vm, and Erev is the Na+ reversal potential.
Activation curves were derived by plotting normalized GNa as a function of test potential and fitted using […]
Where GNa,Max is the maximum conductance, Va is the membrane potential of half-maximal activation, Em is the membrane voltage and k is the slope factor. For steady -state inactivation, normalized current amplitude (INa/INa,Max) at the test potential was plotted as a function of prepulse potential (Vm) and fitted using the […]
Where Vh is the potential of half-maximal inactivation, E m is the membrane voltage, and k is the slope factor.
Transient INa inactivation decay was estimated with the standard exponential equation. Inactivation time constant (tau, τ) was fitted with the following equation: […]
where I(t) is the amplitude of the current at time t and Iss is the steady-state current during a single voltage-step.
The goodness of fitting was determined by correlation coefficient (R), and the cutoff of R was set at 0.85. To observe effects on long-term inactivation (LTI), a four-step protocol was employed during which cells were subjected to four 0 mV, 20 ms depolarization pulses separated by −90 mV, 40 ms recovery intervals. To control for various cell sizes, the current densities were calculated by dividing INa peak current amplitude/membrane capacitance (Cm). To represent the fraction of channels entering into LTI, the peak INa observed during depolarization cycles 2-4 was normalized to the peak INa observed during depolarization cycle 1 (INa/INa,Cycle 1) and plotted as a function of the depolarization cycle.
The cumulative (frequency-dependent) use-dependency was determined by applying 20 pulses with a depolarization to −10 mV (50 ms duration) and 50 ms recovery intervals with a train of 20 pulses at 10 Hz from a holding potential at -70 mV. […]

[1] = + A-803467, AAV-FGF13 + PW164, no capsaicin
[2] = + A-803467, Cap + Control + PW164
[3] = + A-803467, Cap+ AAV-FGF13 PW164
[4] = + A-803467, Cap+ ShFGF13 + PW164
[5] = + A-803467, Cap- Control (pAAV-shCTRL-GFP) + PW164
[6] = + A-803467, Cap- Control + PW164
[7] = + A-803467, Cap- ShFGF13 + PW164
[8] = + Nav1.8 blocker A-803467, Cap+ - PW164
[9] = + Nav1.8 blocker A-803467, Cap+ PW164
[10] = + Nav1.8 blocker A-803467, Cap+ SB-366791 - PW164
[11] = + Nav1.8 blocker A-803467, Cap+ SB-366791 PW164
[12] = + Nav1.8 blocker A-803467, Naïve + PW164
[13] = + Nav1.8 blocker A-803467, Naïve - PW164
[14] = + A-803467, Control (pAAV-GFP) + ZL192
[15] = + A-803467, Sh (pAAV-shFGF13-GFP) + ZL192
[16] = + Nav1.8 blocker A-803467, Naive + ZL192
[17] = + Nav1.8 blocker A-803467, Naïve + ZL192

## COC(=O)[C@@H](NC(=O)[C@H](CCC(=O)OC(C)(C)C)NC(=O)[C@H](CC(C)C)NC(=O)[C@@H]1CCCN1C(=O)OCc1ccccc1)C(C)C [PW164] (Cbz-PLE(OtBu)V-OMe)
PW164 50 μM, 30–60 minutes, capsaicin 100 nM, except LTI
  effect on capsaicin-induced Na+ current phenotypes: reversed capsaicin-induced phenotypes
PW164 50 μM, unstimulated control, or SB-366791, or ProTx II
  effect on Na+ currents without sensitization: no significant alterations
+ A-803467, AAV FGF13 + PW64
  Long-term inactivation, 2nd Pulse: −68.4 ± 7.1 % maximal Na+ current
  Long-term inactivation, 3rd Pulse: −61.9 ± 7.5 % maximal Na+ current
  Long-term inactivation, 4th Pulse: −58.5 ± 8.3 % maximal Na+ current
[1]
  Activation: −24.3 ± 0.8 mV
  Peak Density: −114.3 ± 5.6 pA/pF
  Steady-State inactivation: −75.65 ± 1.6 mV
  Tau (τ): 1.65 ± 0.14 ms
[2]
  Activation: −21.92 ± 0.87 mV
  Long-term inactivation, 2nd Pulse: −59.86 ± 2.37 % maximal Na+ current
  Long-term inactivation, 3rd Pulse: −49.84 ± 2.93 % maximal Na+ current
  Long-term inactivation, 4th Pulse: −46.98 ± 3.3 % maximal Na+ current
  Peak Density: −92.79 ± 7.96 pA/pF
  Steady-State inactivation: −58.11 ± 1.04 mV
  Tau (τ): 1.42 ± 0.09 ms
[3]
  Activation: −27.8 ± 0.81 mV
  Peak Density: −91.7 ± 10.3 pA/pF
  Steady-State inactivation: −73.36 ± 1.4 mV
  Tau (τ): 1.63 ± 0.22 ms
+ A-803467, Cap+ AAV-GFP PW164
  Activation: −28.39 ± 0.59 mV
  Peak Density: −87.62 ± 9.5 pA/pF
  Steady-State inactivation: −75.15 ± 1.69 mV
  Tau (τ): 2.0 ± 0.32 ms
+ A-803467, Cap+ GFP PW164
  Long-term inactivation, 2nd Pulse: −53.56 ± 4.9 % maximal Na+ current
  Long-term inactivation, 3rd Pulse: −54.96 ± 3.6 % maximal Na+ current
  Long-term inactivation, 4th Pulse: −54.22 ± 4.3 % maximal Na+ current
[4]
  Activation: −32.72 ± 1.59 mV
  Long-term inactivation, 2nd Pulse: −74.3 ± 3.96 % maximal Na+ current
  Long-term inactivation, 3rd Pulse: −68.4 ± 5.4 % maximal Na+ current
  Long-term inactivation, 4th Pulse: −67.2 ± 5.2 % maximal Na+ current
  Peak Density: −76.49 ± 4.86 pA/pF
  Steady-State inactivation: −67.68 ± 1.53 mV
  Tau (τ): 1.38 ± 0.10 ms
+ A-803467, Cap+ hFGF13 PW164
  Long-term inactivation, 2nd Pulse: −55.4 ± 2.7 % maximal Na+ current
  Long-term inactivation, 3rd Pulse: −52.0 ± 3.7 % maximal Na+ current
  Long-term inactivation, 4th Pulse: −45.4 ± 3.1 % maximal Na+ current
[5]
  Activation: −25.74 ± 1.14 mV
  Peak Density: −111.31 ± 11.73 pA/pF
  Steady-State inactivation: −60.96±1.53 mV
  Tau (τ): 1.18 ± 0.09 ms
[6]
  Long-term inactivation, 2nd Pulse: −86.72 ± 2.2 % maximal Na+ current
  Long-term inactivation, 3rd Pulse: −82.89 ± 3.3 % maximal Na+ current
  Long-term inactivation, 4th Pulse: −81.6 ± 3.6 % maximal Na+ current
[7]
  Activation: −29.77 ± 1.74 mV
  Long-term inactivation, 2nd Pulse: −82.82 ± 2.85 % maximal Na+ current
  Long-term inactivation, 3rd Pulse: −81.52 ± 3.86 % maximal Na+ current
  Long-term inactivation, 4th Pulse: −81.16 ± 4.06 % maximal Na+ current
  Peak Density: −96.02 ± 8.94 pA/pF
  Steady-State inactivation: −64.99 ± 1.30 mV
  Tau (τ): 0.98 ± 0.09 ms
[8]
  Activation: −27.51 ± 1.22 mV
  Peak Density: −71.9 ± 9.4 pA/pF
  Steady-State inactivation: −74.71 ± 1.43 mV
  Tau (τ): 1.39 ± 0.09 ms
[9]
  Long-term inactivation, 2nd Pulse: −45.59 ± 3.33 % maximal Na+ current
  Long-term inactivation, 3rd Pulse: −38.18 ± 2.61 % maximal Na+ current
  Long-term inactivation, 4th Pulse: −32.17 ± 4.29 % maximal Na+ current
[10]
  Activation: −30.7 ± 0.53 mV
  Peak Density: −95.2 ± 9.9 pA/pF
  Steady-State inactivation: −73.56 ± 1.33 mV
  Tau (τ): 1.52 ± 0.11 ms
[11]
  Long-term inactivation, 2nd Pulse: −54.94 ± 3.35 % maximal Na+ current
  Long-term inactivation, 3rd Pulse: −47.15 ± 2.81 % maximal Na+ current
  Long-term inactivation, 4th Pulse: −45.57 ± 4.0 % maximal Na+ current
[12]
  Long-term inactivation, 2nd Pulse: −74.84 ± 5.46 % maximal Na+ current
  Long-term inactivation, 3rd Pulse: −67.02 ± 3.43 % maximal Na+ current
  Long-term inactivation, 4th Pulse: −65.63 ± 4.22 % maximal Na+ current
[13]
  Activation: −30.27 ± 0.75 mV
  Peak Density: −84.1 ± 5.9 pA/pF
  Steady-State inactivation: −75.11 ± 0.78 mV
  Tau (τ): 0.98 ± 0.09 ms
pAAV-FGF13-GFP neurons, PW164 50 μM
  effect on INa potentiation by FGF13 overexpression: fully attenuated

## CC(=O)N[C@@H](Cc1ccccc1)C(=O)N[C@@H](CC(C)C)C(=O)N1CCC[C@H]1C(=O)N[C@@H](CCCCN)C(=O)Nc1ccccc1 [ZL192] (Ac-FLPK-NHPh)
[14]
  Activation: −29.64 ± 0.92 mV
  Peak Density: −189.79 ± 15.05 pA/pF
  Steady-State inactivation: −70.68 ± 1.76 mV
  Tau (τ): 1.09 ± 0.05 ms
+ A-803467, Control + ZL192
  Long-term inactivation, 2nd Pulse: −90.69 ± 2.00 % maximal Na+ current
  Long-term inactivation, 3rd Pulse: −89.18 ± 2.37 % maximal Na+ current
  Long-term inactivation, 4th Pulse: −87.9 ± 2.75 % maximal Na+ current
[15]
  Activation: −22.84 ± 1.28 mV
  Peak Density: −77.34 ± 6.83 pA/pF
  Steady-State inactivation: −61.77 ± 2.40 mV
  Tau (τ): 1.23 ± 0.05 ms
+ A-803467, Sh + Zl192
  Long-term inactivation, 2nd Pulse: −84.46 ± 3.81 % maximal Na+ current
  Long-term inactivation, 3rd Pulse: −82.09 ± 3.89 % maximal Na+ current
  Long-term inactivation, 4th Pulse: −80.59 ± 4.08 % maximal Na+ current
[16]
  Activation: −29.92 ± 0.79 mV
  Peak Density: −181.06 ± 13.74 pA/pF
  Steady-State inactivation: −72.03 ± 0.94 mV
  Tau (τ): 1.31 ± 0.06 ms
[17]
  Long-term inactivation, 2nd Pulse: −90.95 ± 1.82 % maximal Na+ current
  Long-term inactivation, 3rd Pulse: −88.17 ± 2.02 % maximal Na+ current
  Long-term inactivation, 4th Pulse: −86.7 ± 1.7 % maximal Na+ current
ZL192 50 μM, no triggering stimuli
  effect on INa in naive neurons: potentiated INa
